These results are taken from patent US12036262B2, “Edible plant-derived nanoparticles for regulation of gut microbiota” (University of Louisville Research Foundation, Inc., priority 2017, dated 2024).

For data set [1], the system named is SpaC fragment with ath-miR167a binding site. As to the kind of experiment: SpaC-pGFPuv GFP reporter in E. coli (FACS). The format is cell-based. The method, then: Plasmid Construction and Mutagenesis. The SpaC fragment (339-800, LGG RS02140) spanning the sequences of the potential target (710-717) of GELN ath-miR167a was obtained by PCR with cDNA from LGG RNA. PCR was performed using a Bio-Rad thermal cycler T100. The 462-bp PCR product amplified by the primer pair SpaC-pGFPuv-F: 5′-[…]-3′ (SEQ ID NO: 1) and SpaC-pGFPuv-R: 5′-[…]-3′ (SEQ ID NO: 2) was ligated into the Sphl and Xbal restriction enzyme sites of a pGFPuv vector (Takara Bio/Clontech, Mountain View, California, United States of America) to obtain a green fluorescent protein (GFP) expression reporter. SpaC-pGFPuv fused with the SpaC gene fragment, which can be expressed in prokaryotic cells. To generate mutants of SpaC, the oligonucleotide primers SpaCMut-F, 5′-[…] […]
Flow Cytometry. […] Data were acquired using a BD FACSCalibur flow cytometer (BD Biosciences, San Jose, California, United States of America) and analyzed using FlowJo software (Tree Star Inc., Ashland, Oregon, United States of America). To visualize bacteria stained with PKH26/67 and transformed with SpaC-pGFPuv plasmid, the PKH26/67-positive and GFP-positive bacteria were detected by flow cytometry using a BD FACSCalibur flow cytometer (BD Biosciences, San Jose, California, United States of America), and data were analyzed using FlowJo software (Tree Star Inc., Ashland, Oregon, United States of America).

The subject of data set [2] is Lactobacillus rhamnosus GG (LGG). The data set is described as follows: LGG proliferation in culture (OD600). The following applies: compared with scrambled miRNA. In kind it is cell-based. The method, then:
Bacteria. Lactobacillus rhamnosus (LGG) was obtained from ATCC® (Catalog No. 53103). The SpaC-deleted LGG was cultured in Lysogeny broth (LB; ISC BioExpress, Kaysville, Utah, United States of America) at 37° C. Ruminococcaceae sp. (ATCC® Catalog No. TSD-27) was grown in GS2+cellobiose medium (Biddle et al., 2013). Listeria monocytogenes (Listeria; ATCC® Catalog No. 15313) and Bacteroides fragilis (Fragilis, NCTC 9343) were cultured in brain heart infusion (BHI) broth (Hardy Diagnostics, Santa Maria, California, United States of America) as described in Zhang & Wang, 2015 and Deng et al., 2015, respectively. LGG was grown in MRS broth media at 37° C. in anaerobic conditions for 14-16 hours to an OD600 of 0.8-1.0. Bacterial viability and concentration were checked by MRS agar platting. Cultures were centrifuged and the bacterial pellet was diluted in MRS for in vitro experiments and in PBS for gavaging at 10^9 CFU/mouse per day.

For data set [3], the system named is LGG. As to the kind of experiment: Bacterial translocation to peripheral blood and liver. In kind it is in vivo. To be noted: DSS-treated SPF and germ-free mice, compared with LGG alone. The method, then:
Bacterial Translocation. Bacterial translocation from the murine gut to peripheral blood and liver was determined at the indicated times presented in the relevant figures after oral bacterial administration. Fifty microliters of anticoagulant blood were cultured on MRS agar for 48 h at 37° C. in an anaerobic chamber. Liver tissue samples were homogenized in 0.5% Triton X-100/PBS, and 100 μl of the homogenates were cultured on MRS agar plates. After 48 hours of incubation, CFUs were counted, and the results are expressed as number of bacteria detected/mL of blood or gram of liver.

“ath-miR167a: GELN miRNA, SEQ ID NO: 9 (UGAAGCUGCCAGCAUGAUCUA; expressed or natural sequence)”: the “GFP expression with mutation that disrupted the binding site” value in data set [1] is on record as “entirely restored GFP expression”. In data set [2], the “growth of SpaC^del LGG” value is recorded as “no effect”. Further, the “LGG migration into bloodstream and liver” value in data set [3] is reported as “significantly reduced LGG translocation into the peripheral blood”.
